According to patent US10688075B2 (Morgandane Scientific, LLC, priority 2018, dated 2020):
Several values for one entry are separate records, joined by “and”; a condition that tells them apart may be missing. Equal entries are not always repeated. Where two headings read alike, the source gives them in different places.

Assays:
[1] = Plasma rivaroxaban pharmacokinetics: single 20 mg rivaroxaban alone (Period I) or with 360 mg verapamil at steady state (Period III), subjects with mild renal impairment or normal renal function
Description: These patients are subjected to various one-time and longitudinal pharmacokinetic (PK) and pharmacodynamic (PD) analyses. […] Cmax and AUC values for each dose are calculated. Patients also undergo a general physical exam to determine overall health and well-being.
All the pharmacokinetic and pharmacodynamics analyses are repeated on patients receiving this treatment.
Subjects with either mild renal impairment or with normal renal function were enrolled.
Renal function of the subjects was determined by measuring creatinine clearance (CLcr) rates. Subjects who had CLcr≥90 mL/min were categorized as having normal renal function whereas subjects who had CLcr 50-79 mL/min were categorized as mildly renally impaired. Blood samples were collected and processed according to the standard protocols.

Prothrombin Time = assay: Prothrombin time (STA Neoplastin method) after rivaroxaban with or without verapamil; format: in vivo, human
Excerpt: As used herein, the term “prothrombin time” (PT) refers to a blood test that measures how long it takes blood to clot. In some embodiments, a prothrombin time test can be used to measure of a patient's haemostasis. In some embodiments, PT can be used to measure the effectiveness or exposure to a blood clotting drug. Persons having skill in the art sometimes interchangeably refer to a PT test as an INR. […] Additionally, PT measurements are subject to variability based on the test reagent and laboratory test ranges determined by each institution.
Additional pharmacodynamic metrics are also gathered for each patient, including, but not limited to: prothrombin time (using the STA® Neoplastin® method) and Factor Xa activity. […] Renal Function and non-vitamin K oral anticoagulants in comparison with warfarin on safety and efficacy outcomes in atrial fibrillation patients: a systemic review and meta-regression analysis.
Blood samples were collected and processed according to the standard protocols.

Factor Xa = biological target: T1, Factor Xa (Homo sapiens, UniProt P00742); assay: Factor Xa activity after rivaroxaban with or without verapamil; format: in vivo
T1 construct: host or cells: human subjects
Excerpt: Additional pharmacodynamic metrics are also gathered for each patient, including, but not limited to: prothrombin time (using the STA® Neoplastin® method) and Factor Xa activity. Protocols for each of these analyses have been described in Nielsen et al 2015. Renal Function and non-vitamin K oral anticoagulants in comparison with warfarin on safety and efficacy outcomes in atrial fibrillation patients: a systemic review and meta-regression analysis.

[2] = Risk of major bleeding from steady state rivaroxaban AUC (FIG. 5); format: in vivo, human
Description: See Center for Drug Evaluation and Research, Application No. 022406Orig1s000, Clinical Pharmacology and Biopharmaceutics Review(s), at page 36, which is hereby incorporated by reference in its entirety.
Group “c” represents the average of the three subjects in Group “b” who had the highest AUCinf, which was about 8,143 μg·hr/L. The risk of major bleeding of the subjects in Group “c” were at least 5 times higher compared to the populations in Group “a” and not even visible on this scale.

[3] = Reported rivaroxaban serious bleeding adverse events by concomitant drug; format: in vivo, human
Excerpt: 8, 2015, American Heart Association, Scientific Sessions 2015, and published at http://www.abstractsonline.com/pp8/#!/3795/presentation/37668).

[4] = Drug-drug interaction study of oral verapamil and 0.5-2.5 mg rivaroxaban (Example 4); format: in vivo, human; conditions: 0.5-2.5 mg rivaroxaban with verapamil (100-480 mg)
Description: A control study is performed to determine the presence of DDIs in patients treated with oral verapamil and rivaroxaban (without aspirin). […]. A representative example of a sample study is found in Example 1.

[5] = Drug-drug interaction study of oral verapamil, aspirin and rivaroxaban (Example 5); format: in vivo, human; conditions: for Risk of major bleeding: e.g.
Description: Additional studies are performed to determine the presence of DDIs in patients treated with oral verapamil, aspirin, and rivaroxaban. […] A representative example of such a study is found in Example 1. […] Additionally, these studies show a linear relationship between the pharmacokinetic and the pharmacodynamics of rivaroxaban in subjects with normal renal function and renal insufficiency.

[6] = cited from earlier work
[7] = in vivo; cited from earlier work
[8] = cited from earlier work; remark: listed apart in the source
[9] = cited from earlier work; remark: listed apart in the source
P-gp = P-gp (Homo sapiens, UniProt P08183); conditions: in vitro; cited from earlier work
[10] = Example 1: 20 mg rivaroxaban + 360 mg verapamil vs rivaroxaban alone
[11] = Example 4: 0.5-2.5 mg rivaroxaban with verapamil (100-480 mg)

T1 sequence (P00742 235-488 limits assumed): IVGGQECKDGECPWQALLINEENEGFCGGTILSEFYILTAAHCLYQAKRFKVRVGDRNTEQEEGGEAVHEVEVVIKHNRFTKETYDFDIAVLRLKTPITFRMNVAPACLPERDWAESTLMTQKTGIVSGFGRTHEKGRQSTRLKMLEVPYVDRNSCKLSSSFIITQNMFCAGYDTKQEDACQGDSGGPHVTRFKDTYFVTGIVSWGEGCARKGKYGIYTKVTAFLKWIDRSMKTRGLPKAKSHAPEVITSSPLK
T1 sequence (P00742 41-179 partner limits assumed): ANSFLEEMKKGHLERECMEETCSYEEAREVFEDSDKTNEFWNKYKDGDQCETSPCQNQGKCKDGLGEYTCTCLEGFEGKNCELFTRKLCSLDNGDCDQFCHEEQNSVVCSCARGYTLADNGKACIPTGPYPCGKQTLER
Sequence of P-gp (P08183 whole entry): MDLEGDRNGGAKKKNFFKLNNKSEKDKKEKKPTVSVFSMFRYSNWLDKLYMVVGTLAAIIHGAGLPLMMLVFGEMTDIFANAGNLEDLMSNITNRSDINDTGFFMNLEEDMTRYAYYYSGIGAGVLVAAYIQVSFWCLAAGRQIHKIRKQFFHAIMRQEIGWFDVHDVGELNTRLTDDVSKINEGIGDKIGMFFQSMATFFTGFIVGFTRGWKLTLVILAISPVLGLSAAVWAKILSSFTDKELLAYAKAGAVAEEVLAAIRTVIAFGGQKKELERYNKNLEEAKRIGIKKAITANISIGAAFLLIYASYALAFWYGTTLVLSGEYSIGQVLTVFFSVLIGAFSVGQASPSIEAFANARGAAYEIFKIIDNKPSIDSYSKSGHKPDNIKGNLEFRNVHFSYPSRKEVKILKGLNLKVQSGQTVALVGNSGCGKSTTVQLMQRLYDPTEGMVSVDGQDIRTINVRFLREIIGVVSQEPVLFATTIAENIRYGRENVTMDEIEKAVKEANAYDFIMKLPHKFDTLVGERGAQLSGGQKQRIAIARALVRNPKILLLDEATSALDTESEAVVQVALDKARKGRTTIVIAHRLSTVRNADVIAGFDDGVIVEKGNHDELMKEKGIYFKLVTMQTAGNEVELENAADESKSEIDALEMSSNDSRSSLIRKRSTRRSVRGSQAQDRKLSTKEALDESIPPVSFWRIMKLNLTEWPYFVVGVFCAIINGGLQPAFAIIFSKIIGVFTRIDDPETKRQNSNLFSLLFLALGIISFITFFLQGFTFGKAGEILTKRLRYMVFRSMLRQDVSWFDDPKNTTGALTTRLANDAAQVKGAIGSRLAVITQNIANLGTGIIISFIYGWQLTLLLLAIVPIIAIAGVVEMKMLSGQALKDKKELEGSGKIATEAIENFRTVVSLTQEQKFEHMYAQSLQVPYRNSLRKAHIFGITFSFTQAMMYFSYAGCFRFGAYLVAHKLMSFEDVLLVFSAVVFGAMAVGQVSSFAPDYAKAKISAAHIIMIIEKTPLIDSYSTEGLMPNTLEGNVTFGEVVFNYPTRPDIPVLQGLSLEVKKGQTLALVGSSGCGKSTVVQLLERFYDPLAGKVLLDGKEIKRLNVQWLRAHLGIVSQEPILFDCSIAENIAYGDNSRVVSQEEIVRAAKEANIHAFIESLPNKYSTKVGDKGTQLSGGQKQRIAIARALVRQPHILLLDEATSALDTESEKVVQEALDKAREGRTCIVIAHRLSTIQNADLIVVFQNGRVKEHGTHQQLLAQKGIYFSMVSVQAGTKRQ

O=C(NC[C@H]1CN(c2ccc(N3CCOCC3=O)cc2)C(=O)O1)c1ccc(Cl)s1 [Rivaroxaban]
CL/F/kg ([1]; Period I, rivaroxaban alone, Group 2 normal renal function (N = 13), outlier sample excluded, arithmetic mean): 0.108 (L/hr)/kg
CL/F/kg ([1]; Period III, rivaroxaban and verapamil, Group 2 normal renal function (N = 10), individual subjects): 0.0664 (L/hr)/kg and 0.0705 (L/hr)/kg and 0.0839 (L/hr)/kg
CL/F/kg ([1]; Period III, rivaroxaban and verapamil, Group 2 normal renal function (N = 10), median): 0.0664 (L/hr)/kg
t1/2 ([1]; human, in vivo, 20 mg): 9.44 h
PT on concomitant verapamil (Prothrombin Time; [10]): prolonged PT
PT on concomitant verapamil (Prothrombin Time; [11]): prolonged PT
Relationship between plasma concentrations of rivaroxaban and PT (pharmacokinetics vs pharmacodynamics) (Prothrombin Time; subjects with normal renal function and mild renal insufficiency, Day 1 and Day 15, FIGS. 1 and 2): clear linear relationship
Factor Xa inhibition on concomitant verapamil (Factor Xa; [10]): increased Factor Xa inhibition
Factor Xa inhibition on concomitant verapamil (Factor Xa; [11]): increased Factor Xa inhibition
Risk of major bleeding, Group a ([2]; fed subjects, single 20 mg rivaroxaban, AUC about 2,026 μg·hr/L, FIG. 5): about 3%
Risk of major bleeding compared to Group a, Group b ([2]; mild renal impairment, single 20 mg rivaroxaban and 360 mg verapamil): 2.5 times higher
Risk of major bleeding compared to Group a, Group c ([2]; three subjects of Group b with the highest AUCinf): at least 5 times higher
Association with increased serious bleeding adverse events ([3]; concomitant administration of rivaroxaban and erythromycin): not associated with increased serious bleeding adverse events
Share of the reported rivaroxaban serious bleeding adverse events ([3]; patients concomitantly administered verapamil and rivaroxaban, who account for only 22% of the total population receiving rivaroxaban): 30%
Rivaroxaban plasma concentrations on concomitant verapamil [4]: higher rivaroxaban plasma concentrations
Risk of major bleeding compared to subjects not concomitantly administered verapamil ([5]; concomitant oral verapamil, aspirin and rivaroxaban): significantly higher risk of major bleeding
Risk of major bleeding ([5]; single 1.75 mg rivaroxaban and verapamil (e.g., 360 mg), Example 5, from about 1.5-2.0%): not more than 4.5%
Risk of major bleeding ([5]; single 2.5 mg rivaroxaban, verapamil (e.g., 360 mg) and aspirin (100 mg), about 3%): not more than 4.5%
Geometric mean AUC of rivaroxaban for 2.5 mg dose ([6]; 2.5 mg rivaroxaban, no verapamil): 165.4 μg·h/L to 551.9
Geometric mean AUC of rivaroxaban for 5 mg dose ([6]; 5 mg rivaroxaban, no verapamil): 1064.25 µg·h/L
Average AUC (average geometric mean), Group a ([6]; fed subjects across studies 10989 and 11938, single 20 mg rivaroxaban, FIG. 5): approximately 2,026 μg·hr/L
Upper bound of the 90% confidence interval of the steady state AUC (Label A) ([6]; patients administered 20 mg of rivaroxaban, FIG. 4): about 3,792 μg·hr/L
Upper boundary of the 90% confidence interval of the steady state AUC (Label C) ([6]; single 20 mg dose of rivaroxaban after a meal (study 10989), FIG. 4): about 2,448 μg·hr/L
Dose eliminated in urine as unprocessed active drug [7]: ~36%
Dose eliminated through active renal secretion [7]: 30%
Dose eliminated through glomerular filtration [7]: 6%
Dose subject to metabolic degradation via the liver's oxidative and hydrolytic pathways [7]: two-thirds
Share of rivaroxaban clearance accounted for by CYP3A4 [7]: approximately 18%
Risk of major bleeding events compared to aspirin alone ([8]; 2.5 mg rivaroxaban (BID) and aspirin): increase the risk of major bleeding events
Risk of major bleeding events compared to aspirin alone ([8]; 5 mg dose of rivaroxaban alone): increase the risk of major bleeding events
Clinical outcomes (stroke, myocardial infarction, cardiovascular death) compared to aspirin alone and rivaroxaban 5 mg BID alone ([8]; rivaroxaban 2.5 mg BID and aspirin, patients with cardiovascular disease): reduce several clinical outcomes

COc1ccc(NC(=O)c2ccc(C(=N)N(C)C)cc2)c(C(=O)Nc2ccc(Cl)cn2)c1 [betrixaban]
Exposure on concomitant use of P-gp inhibitors, such as verapamil ([9]; BEVYXXA label): increased exposure to betrixaban

CN1CCc2nc(C(=O)N[C@@H]3C[C@@H](C(=O)N(C)C)CC[C@@H]3NC(=O)C(=O)Nc3ccc(Cl)cn3)sc2C1 [edoxaban]
Bleeding or other adverse events on co-administration with verapamil ([9]; Mendell et al.): did not lead to any increased bleeding or other adverse events

CC[C@H]1OC(=O)[C@H](C)[C@@H](O[C@H]2C[C@@](C)(OC)[C@@H](O)[C@H](C)O2)[C@H](C)[C@@H](O[C@@H]2O[C@H](C)C[C@H](N(C)C)[C@H]2O)[C@](C)(O)C[C@@H](C)C(=O)[C@H](C)[C@@H](O)[C@]1(C)O [erythromycin]
Eliminated renally (unchanged) [7]: 2-15%
Inhibition of P-gp-mediated efflux of rivaroxaban across cell monolayers (P-gp): did not inhibit
